How the values were obtained:
[1] = Pharmacokinetics study in CD1 mice; type: in vivo; conditions: for AUC0-infinity / AUC0-t / T1/2 / Tmax / F (bioavailability): CD1 mice; for AUC0-infinity / AUC0-t / T1/2 / Tmax: plasma, estimated value, n = 3; for AUC0-infinity / AUC0-t / T1/2: P.O 50 mg/kg CS7171, 40 mg/kg JKF-034 (I.V 10 and 2.5 mg/kg), route of the parameter not stated; for Tmax: P.O 50 mg/kg CS7171, 40 mg/kg JKF-034; for F (bioavailability): P.O 50 mg/kg vs I.V 10 mg/kg CS7171, P.O 40 mg/kg vs I.V 2.5 mg/kg JKF-034
Description: For the CS7171 and JKF-034 pharmacokinetics (PK) assays, 30 CD1 mice were purchased from JH Laboratory Animal Co. LTD (Qualification No: SCXK (SH) 2017-001220170012002565). A total of 18 CD1 mice were grouped for intravenous injection (I.V) with 10 mg/kg CS7171 and 2.5 mg/kg JKF-034. Sampling was performed at 0.083, 0.25, 0.5, 1, 3, 6 and 24 h after administration. A total of 12 CD1 mice were grouped for oral administration (P.O) of 50 mg/kg CS7171 and 40 mg/kg JKF-034. Sampling was performed at 0.25, 0.5, 1, 3, 6 and 24 h after administration. The blood samples were maintained in wet ice first and centrifuged to obtain plasma within 15 min post-sampling. Subsequently, the samples were subjected to LC-MS/MS analysis.

MDR-MDCK cell line = assay: In vitro blood-brain barrier permeability assay; type: in vitro ADME; conditions: 5 μmol/L, 37 °C, 90 min
Description: The MDR-MDCK cell line can be used as a fast blood-brain barrier (BBB) model to aid drug discovery (Wang et al., [2005]). In this study, the MDR-MDCK cell line was used to evaluate the permeability coefficients of CS7171 and JKF-034. Briefly, CS7171 and JKF-034 were prepared to final concentrations of 5 μmol/L. The cells were dosed on the basolateral side (B-A) and apical side (A-B) and incubated at 37 °C for 90 min. Each test was performed in duplicate. The apparent permeability coefficient, Papp, was calculated using the following formula: Papp=VA/Area×Time×(drugacceptor,90-min/drugdonor,0-min×Dilution Factor
VA is the volume in the acceptor well, Area is the surface area of the membrane, Time is the total transport time in seconds, [drug]donor, 0-min is the donor drug concentration measured at 0 min; [drug]acceptor, 90-min is the acceptor drug concentration measured at 90 min; dilution factor is the degree of dilution of the donor sample before loading to LC-MS/MS.

[2] = In vitro metabolic stability in mouse liver microsomes; type: in vitro ADME
Description: (§1) Measurements of metabolic stability can be performed with liver microsomes, which are known to contain the major drug-metabolizing enzymes and UDP-glucuronosyltransferase (Baranczewski et al., [2006]). The in vitro metabolic stability levels of CS7171 and JKF-034 were measured using human, monkey, and mouse liver microsomes. The metabolic half-time (T1/2) and intrinsic clearance (Clint) were assayed using LC-MS analysis. Ketanserin is a potent, orally effective antagonist of endogenous serotonin. Its pharmacological profile is well studied (Brogden and Sorkin, [1990]). In this study, we used ketanserin as a control. If the T1/2 of the tested compound was 30–120 min, the compound was considered to show moderate metabolism in liver microsomes. If the T1/2 value was less than 30 min, the compound was considered to be susceptible to metabolism in liver microsomes.

[3] = In vitro metabolic stability in human liver microsomes; type: in vitro ADME
Description: as §1

[4] = In vitro metabolic stability in monkey liver microsomes; type: in vitro ADME
Description: as §1

Structure (SMILES): O=C1NN(c2ccc(Cl)c(Cl)c2)C(=O)C1=Cc1ccc(O)c(N(O)O)c1 [CS7171]
- AUC0-infinity [1]: 4,160 h*ng/mL
- AUC0-t [1]: 4,101 h*ng/mL
- T1/2 [1]: 56.6 min
- Tmax [1]: 15 min
- F (bioavailability) [1]: 28.2%
- Papp Mean, A-B (MDR-MDCK cell line): 7.91 10^−6 cm/s
- Papp Mean, B-A (MDR-MDCK cell line): 3.61 10^−6 cm/s
- Clint [2]: 477.87 mL/min/kg
- T1/2 [2]: 11.42 min
- Clint [3]: 407.54 mL/min/kg
- T1/2 [3]: 4.27 min
- Clint [4]: 229.15 mL/min/kg
- T1/2 [4]: 8.85 min

Structure (SMILES): O=S(=O)(c1ccccc1)N1CCN(Cc2ccccc2)CC1 [JKF-034]
- metabolic half-time (T1/2) of JKF-034 relative to CS7171 ([1]; CD1 mice PK): about ten times higher than that of CS7171
- AUC0-infinity [1]: 1,692 h*ng/mL
- AUC0-t [1]: 1,262 h*ng/mL
- T1/2 [1]: 551 min
- Tmax [1]: 30 min
- F (bioavailability) [1]: 19.3%
- Papp Mean, A-B (MDR-MDCK cell line): 57.33 10^−6 cm/s
- Papp Mean, B-A (MDR-MDCK cell line): 32.79 10^−6 cm/s
- Clint [2]: 4,702.82 mL/min/kg
- T1/2 [2]: 1.16 min
- Clint [3]: 95.92 mL/min/kg
- T1/2 [3]: 18.12 min
- Clint [4]: 401.14 mL/min/kg
- T1/2 [4]: 5.05 min

Source: paper PMC6776562, “Inhibition of Rac1-dependent forgetting alleviates memory deficits in animal models of Alzheimer’s disease” (Protein & Cell, 2019)
